# Experimental data from patent publication US20160060285A1, “Aminoglycosides, Methods of Synthesis, and Associated Applications” (UTAH STATE UNIVERSITY, priority 2010, published 2016).
# Like-named read-outs stand apart in the source and are kept apart here.
# Columns and labels:
# [1] = tested on: Staphylococcus aureus ATCC25923; assay: Bacterial growth inhibition (MIC) test, microtiter plate, CLSI protocol; type: cell-based
# [2] = tested on: Fusarium graminearum B4-5A; assay: microbe, parasite or virus in culture; type: cell-based
# [3] = tested on: Escherichia coli ATCC 25922; assay: Bacterial growth inhibition (MIC) test, microtiter plate, CLSI protocol; type: cell-based; details: E. coli 25922, Luria-Bertani medium, 37° C., 24 hours
# [4] = tested on: Candida albicans ATCC64124 (azole-resistant); assay: microbe, parasite or virus in culture; type: cell-based; details: for MIC: ATCC64124, 48 h
# HeLa cells = assay: Cell viability assay (MTT), cytotoxicity test; type: cell-based, human; details: for toxicity to human cervical cancer cell line HeLa: 1.0 to 1000 μg/mL; for toxicity to human cervical cancer cell line HeLa / Viable Cells Percentage Compared to Control: 48 h; for Viable Cells Percentage Compared to Control: MTT
# Description: HeLa cells were grown in commercial DMEM 1× (Gibco) with 10% fetal bovine serum (FBS, Gibco), 100 U/mL penicillin, and 100 μg/mL streptomycin at 37° C. and 5% CO2. The cells were allowed to adhere for 24 h before drug treatment.
# The cells were seeded in 96-well microtiter plates (10,000/200 μL). After 24 h of incubation in the media, cells were treated with various concentrations of K608, K4608 and K408 (0.0, 1.0, 10.0, 100.0, 1000 μg/mL and Trition 1×) for 48 h. 20 μL of MTT stock solution (5 mg/mL) was added to each well and incubated for 4 h at 37° C. Upon completion of incubation, the media was carefully removed and washed twice with […] of pbs buffer. Then, 200 μL of DMSO was added to each well; agitated on orbital shaker for 15 min., and the absorbance at 570 nm with 670 nm filter was determined with a microplate reader (Synergy H4). The results are expressed as viability compared with that of control. The experiment was carried out in triplicate in three independent experiments.
# [5] = tested on: Candida albicans ATCC MYA-2876 (azole sensitive); assay: Fungal MIC and MFC, microbroth dilution assay (M27-A3); type: cell-based; details: C. albicans MYA2876 (azole sensitive); for MIC: RPMI 1640, 35° C., 48 hours
# [6] = tested on: azole-resistant Candida albicans ATCC 64124; assay: Antifungal synergism by checkerboard analysis, K-compound and azole combinations; type: cell-based; details: for MIC: Candida albicans; for MIC / MIC alone: compound alone; for MIC alone: K408 checkerboard table; for MIC K408 with azole: MIC of K408 when combined with the labelled azole; for MIC with K408: MIC of the labelled azole when combined with K408; for MIC with K4608: MIC of the labelled azole when combined with K4608; for FIC Index (K408 with azole): combination of K408 with the labelled azole; for FIC Index (K408 with azole) / FIC Index (K4608 with azole): synergistic if ≦0.5, indifferent if >0.5-4, antagonistic if >4; for FIC Index (K4608 with azole): combination of K4608 with the labelled azole
# [7] = S. aureus 25923, 37° C., 24 hours
# [8] = F. graminearum B4-5A, RPMI 1640, 35° C., 48 hour
# [9] = Staphylococcus aureus, ATCC25923, S. aureus 25923, 37° C., 24 hours, read-out: MIC
# [10] = Fusarium graminearum, B45A, 48 h
# [11] = ATCC64124, K408 checkerboard table, first of two separate experiments
# [12] = ATCC64124, K408 checkerboard table, second of two separate experiments
# [13] = first of two separate experiments
# [14] = second of two separate experiments
# [15] = ATCC64124, K4608 checkerboard table
compound,measurement,setting,value
CCCCOC1C(CO)OC(OC2C(N)CC(N)C(OC3OC(CN)C(O)C(O)C3O)C2O)C(O)C1N (stereo not shown) [Compound K404],MIC,[1]; [7],4-16 mg per L
same,MIC,[2]; [8],>500 mg per L
CCCCCCOC1C(CO)OC(OC2C(N)CC(N)C(OC3OC(CN)C(O)C(O)C3O)C2O)C(O)C1N (stereo not shown) [Compound K406],MIC,[1]; [7],8-64 mg per L
same,MIC,[2]; [8],>500 mg per L
same,MIC,[3],>250 mg per L
CCCCCCCOC1C(CO)OC(OC2C(N)CC(N)C(OC3OC(CN)C(O)C(O)C3O)C2O)C(O)C1N (stereo not shown) [Compound K407],MIC,[1],125 mg per L
same,MIC,[2]; [8],125 mg per L
same,MIC,[3],>250 mg per L
CCCCCCCCOC1[C@@H](N)[C@@H](O)C(O[C@@H]2C(N)CC(N)C(O[C@H]3OC(CN)[C@@H](O)[C@H](O)C3O)[C@@H]2O)O[C@@H]1CO (stereo partly shown) [Compound K408],MFC,[4]; ATCC64124,9.8 µg/mL
same,MIC,[4],9.8 µg/mL
same,MIC,[1]; [9],125 µg/mL
same,MIC,[2]; [10],31.3 µg/mL
same,toxicity to human cervical cancer cell line HeLa,HeLa cells,not toxic
same,Viable Cells Percentage Compared to Control,"HeLa cells; HeLa, 1 μg/mL",139.37%
same,Viable Cells Percentage Compared to Control,"HeLa cells; HeLa, 10 μg/mL",156.92%
same,Viable Cells Percentage Compared to Control,"HeLa cells; HeLa, 100 μg/mL",144.82%
same,Viable Cells Percentage Compared to Control,"HeLa cells; HeLa, 1000 μg/mL",138.39%
same,effect on growth of cells (number of viable cells),"HeLa cells; HeLa, wells treated with compound",promoted growth of cells
same,MIC,[5],1.2 µg/mL
same,MFC,[5]; subculture on Sabouraud dextrose agar after MIC test,2.4 µg/mL
same,MIC,[6]; [11],31.2 µg/mL
same,MIC,[6]; [12],31.2 µg/mL
CCCCCCCCCOC1C(CO)OC(OC2C(N)CC(N)C(OC3OC(CN)C(O)C(O)C3O)C2O)C(O)C1N (stereo not shown) [Compound K409],MIC,[1]; [7],>250 mg per L
same,MIC,[2]; [8],62.5 mg per L
same,MIC,[3],>250 mg per L
CCCCCCCCCCOC1C(CO)OC(OC2C(N)CC(N)C(OC3OC(CN)C(O)C(O)C3O)C2O)C(O)C1N (stereo not shown) [Compound K410],MIC,[1]; [7],125 mg per L
same,MIC,[2]; [8],62.5 mg per L
same,MIC,[3],>250 mg per L
CCCCCCCCCCCCOC1C(CO)OC(OC2C(N)CC(N)C(OC3OC(CN)C(O)C(O)C3O)C2O)C(O)C1N (stereo not shown) [Compound K412],MIC,[1]; [7],64 mg per L
same,MIC,[2]; [8],>500 mg per L
same,MIC,[3],125-250 mg per L
CCCCCCCCCCCCCCOC1C(CO)OC(OC2C(N)CC(N)C(OC3OC(CN)C(O)C(O)C3O)C2O)C(O)C1N (stereo not shown) [Compound K414],MIC,[1]; [7],>250 mg per L
same,MIC,[2]; [8],>500 mg per L
same,MIC,[3],>250 mg per L
CCCCCCCCOC[C@H]1OC(O[C@@H]2C(N)CC(N)C(O[C@H]3OC(CN)[C@@H](O)[C@H](O)C3O)[C@@H]2O)[C@H](O)[C@H](N)C1O (stereo partly shown) [Compound K608],toxicity to human cervical cancer cell line HeLa,HeLa cells,not toxic
same,Viable Cells Percentage Compared to Control,"HeLa cells; HeLa, 1 μg/mL",79.47%
same,Viable Cells Percentage Compared to Control,"HeLa cells; HeLa, 10 μg/mL",107.9%
same,Viable Cells Percentage Compared to Control,"HeLa cells; HeLa, 100 μg/mL",75.36%
same,Viable Cells Percentage Compared to Control,"HeLa cells; HeLa, 1000 μg/mL",86.49%
same,cell viability,"HeLa cells; HeLa, at all concentration",~80%
CCCCOCC1OC(OC2C(N)CC(N)C(OC3OC(CN)C(O)C(O)C3O)C2O)C(O)C(N)C1OCCCC (stereo not shown) [Compound K4604],MIC,[1]; [7],>250 mg per L
same,MIC,[2]; [8],125 mg per L
same,MIC,[3],>250 mg per L
CCCCCCOCC1OC(OC2C(N)CC(N)C(OC3OC(CN)C(O)C(O)C3O)C2O)C(O)C(N)C1OCCCCCC (stereo not shown) [Compound K4606],MIC,[1]; [7],32-125 mg per L
same,MIC,[2]; [8],3.9 mg per L
same,MIC,[3],>250 mg per L
CCCCCCCOCC1OC(OC2C(N)CC(N)C(OC3OC(CN)C(O)C(O)C3O)C2O)C(O)C(N)C1OCCCCCCC (stereo not shown) [Compound K4607],MIC,[1]; [7],8-125 mg per L
same,MIC,[2]; [8],15.6 mg per L
same,MIC,[3],125 mg per L
CCCCCCCCCOCC1OC(OC2C(N)CC(N)C(OC3OC(CN)C(O)C(O)C3O)C2O)C(O)C(N)C1OCCCCCCCCC (stereo not shown) [Compound K4609],MIC,[1]; [7],8 mg per L
same,MIC,[2]; [8],125 mg per L
same,MIC,[3],16 mg per L
CCCCCCCCCCOCC1OC(OC2C(N)CC(N)C(OC3OC(CN)C(O)C(O)C3O)C2O)C(O)C(N)C1OCCCCCCCCCC (stereo not shown) [Compound K4610],MIC,[1]; [7],16 mg per L
same,MIC,[2]; [8],>500 mg per L
same,MIC,[3],125 mg per L
CCCCCCCCCCCCOCC1OC(OC2C(N)CC(N)C(OC3OC(CN)C(O)C(O)C3O)C2O)C(O)C(N)C1OCCCCCCCCCCCC (stereo not shown) [Compound K4612],MIC,[1]; [7],64 mg per L
same,MIC,[2]; [8],>500 mg per L
same,MIC,[3],>250 mg per L
CCCCCCCCCCCCCCOCC1OC(OC2C(N)CC(N)C(OC3OC(CN)C(O)C(O)C3O)C2O)C(O)C(N)C1OCCCCCCCCCCCCCC (stereo not shown) [Compound K4614],MIC,[1]; [7],>250 mg per L
same,MIC,[2]; [8],>500 mg per L
same,MIC,[3],>250 mg per L
"NC[C@H]1O[C@H](O[C@H]2[C@H](O)[C@@H](O[C@H]3O[C@H](CO)[C@@H](O)[C@H](N)[C@H]3O)[C@H](N)C[C@@H]2N)[C@H](O)[C@@H](O)[C@@H]1O [Kanamycin, reference compound]",MIC,[4],> 500 µg/mL
same,MIC,[1]; [9],0.5 to 1 µg/mL
same,MIC,[2]; [10],> 500 µg/mL
same,MIC,"[3]; Escherichia coli, ATCC25922, read-out: MIC",1 to 4 µg/mL
same,MIC,[5],250 to 500 µg/mL
Clc1ccccc1C(c1ccccc1)(c1ccccc1)n1ccnc1 [chlotrimazole],MIC alone,[6]; [13],3.91 µg/mL
same,MIC alone,[6]; [14],7.81 µg/mL
same,MIC K408 with azole,[6]; [13],3.91 µg/mL
same,MIC K408 with azole,[6]; [14],1.95 µg/mL
same,MIC K4608 with azole,"[6]; MIC of K4608 when combined with the labelled azole, one experiment",1.95 µg/mL
same,MIC with K408,[6]; [13],0.24 mg/L
same,MIC with K408,[6]; [14],0.49 mg/L
same,MIC with K4608,[6]; one experiment,3.91 µg/mL
same,FIC Index (K408 with azole),[6]; [13],0.37
same,FIC Index (K408 with azole),[6]; [14],0.13
same,FIC Index (K4608 with azole),[6]; one experiment,0.19
OC(Cn1cncn1)(Cn1cncn1)c1ccc(F)cc1F [fluconazole],MIC,[6]; [11],250 µg/mL
same,MIC,[6]; [12],250 µg/mL
same,MIC,[6]; [15],> 250 µg/mL
same,MIC with K408,[6]; [13],"15.63, 15.63 mg L^−1"
same,MIC with K408,[6]; [14],"15.63, 15.63 mg L^−1"
same,MIC with K4608,[6]; one experiment,31.25 µg/mL
same,FIC Index (K408 with azole),[6]; [13],"0.31, 0.31"
same,FIC Index (K408 with azole),[6]; [14],"0.31, 0.31"
same,FIC Index (K4608 with azole),[6]; one experiment,0.25
CCC(C)n1ncn(-c2ccc(N3CCN(c4ccc(OCC5COC(Cn6cncn6)(c6ccc(Cl)cc6Cl)O5)cc4)CC3)cc2)c1=O (stereo not shown) [itraconazole],MIC,[6]; [11],250 µg/mL
same,MIC,[6]; [12],250 µg/mL
same,MIC,[6]; [15],> 250 µg/mL
same,MIC with K408,[6]; [13],"0.98, 0.98 mg L^−1"
same,MIC with K408,[6]; [14],"0.98, 0.98 mg L^−1"
same,MIC with K4608,[6]; one experiment,3.91 µg/mL
same,FIC Index (K408 with azole),[6]; [13],"0.25, 0.25"
same,FIC Index (K408 with azole),[6]; [14],"0.25, 0.25"
same,FIC Index (K4608 with azole),[6]; one experiment,<0.52
CC[C@@H]([C@H](C)O)n1ncn(-c2ccc(N3CCN(c4ccc(OC[C@@H]5CO[C@@](Cn6cncn6)(c6ccc(F)cc6F)C5)cc4)CC3)cc2)c1=O [posaconazole],MIC,[6]; [11],62.5 µg/mL
same,MIC,[6]; [12],250 µg/mL
same,MIC with K408,[6]; [13],"0.24, 0.24 mg L^−1"
same,MIC with K408,[6]; [14],"0.24, 0.24 mg L^−1"
same,MIC with K4608,[6]; one experiment,0.49 µg/mL
same,FIC Index (K408 with azole),[6]; [13],0.38
same,FIC Index (K408 with azole),[6]; [14],0.07
same,FIC Index (K4608 with azole),[6]; one experiment,<0.13
C[C@@H](c1ncncc1F)[C@](O)(Cn1cncn1)c1ccc(F)cc1F [voriconazole],MIC,[6]; [11],7.81 µg/mL
same,MIC,[6]; [12],7.81 µg/mL
same,MIC,[6]; [15],7.81 µg/mL
same,MIC with K408,[6]; [13],1.95 mg/L
same,MIC with K408,[6]; [14],0.81 mg/L
same,MIC with K4608,[6]; one experiment,0.98 µg/mL
same,FIC Index (K408 with azole),[6]; [13],"0.38, 0.38"
same,FIC Index (K408 with azole),[6]; [14],"0.38, 0.38"
same,FIC Index (K4608 with azole),[6]; one experiment,0.19
